Counter-ions that a name gives are not always drawn. Marks after values point to notes of the source that are not given here.
What was measured:
[1] = system: fronto-occipital cortex of the cat; assay: Quantitative EEG, fronto-occipital cat cortex, subcutaneous administration; type: in vivo, cats; details: for group percent change in electrical energy from pre-drug control, Δ band / mean change ± S.E. in electrical energy from pre-drug control, Δ band / group percent change in electrical energy from pre-drug control, α band / mean change ± S.E. in electrical energy from pre-drug control, α band / group percent change in electrical energy from pre-drug control, β band / mean change ± S.E. in electrical energy from pre-drug control, β band / group percent change in electrical energy from pre-drug control, γ band / mean change ± S.E. in electrical energy from pre-drug control, γ band / group percent change in electrical energy from pre-drug control, θ band / mean change ± S.E. in electrical energy from pre-drug control, θ band: fronto-occipital cat cortex; for group percent change in electrical energy from pre-drug control, Δ band / mean change ± S.E. in electrical energy from pre-drug control, Δ band: Δ = 0.05-35 Hz; for group percent change in electrical energy from pre-drug control, α band / mean change ± S.E. in electrical energy from pre-drug control, α band: α= 7-13 Hz; for group percent change in electrical energy from pre-drug control, β band / mean change ± S.E. in electrical energy from pre-drug control, β band: β= 13-25 Hz; for group percent change in electrical energy from pre-drug control, γ band / mean change ± S.E. in electrical energy from pre-drug control, γ band: γ= 25-40 Hz; for group percent change in electrical energy from pre-drug control, θ band / mean change ± S.E. in electrical energy from pre-drug control, θ band: θ= 3.5-7.0 Hz
Procedure, shortened: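 Adult female mongrel cats (n=6 per group) with implanted electrodes were recorded while held in restraining bags, with EEG filtered into Δ, ϑ, α, β and γ bands and integrated as energy counts. Drugs were given subcutaneously in saline, with doses calculated as free base, and recording started 30 min post-injection. Changes from each animal's pre-treatment control were tested by paired Student t-test (P≦0.05).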

rabbit cortex = assay: Quantitative EEG, rabbit cortex, intravenous administration; type: in vivo, rabbits; details: for group percent change in electrical energy from pre-drug control, Δ band / mean change ± S.E. in electrical energy from pre-drug control, Δ band / group percent change in electrical energy from pre-drug control, α band / mean change ± S.E. in electrical energy from pre-drug control, α band / group percent change in electrical energy from pre-drug control, β band / mean change ± S.E. in electrical energy from pre-drug control, β band / group percent change in electrical energy from pre-drug control, γ band / mean change ± S.E. in electrical energy from pre-drug control, γ band / group percent change in electrical energy from pre-drug control, θ band / mean change ± S.E. in electrical energy from pre-drug control, θ band: rabbit cortex; for group percent change in electrical energy from pre-drug control, Δ band / mean change ± S.E. in electrical energy from pre-drug control, Δ band: Δ = 0.5-3.5 Hz; for group percent change in electrical energy from pre-drug control, α band / mean change ± S.E. in electrical energy from pre-drug control, α band: α= 7-13 Hz; for group percent change in electrical energy from pre-drug control, β band / mean change ± S.E. in electrical energy from pre-drug control, β band: β= 13-25 Hz; for group percent change in electrical energy from pre-drug control, γ band / mean change ± S.E. in electrical energy from pre-drug control, γ band: γ= 25-40 Hz; for group percent change in electrical energy from pre-drug control, θ band / mean change ± S.E. in electrical energy from pre-drug control, θ band: θ= 3.5-7.0 Hz
Procedure, shortened: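 Restrained rabbits with cortical leads had EEG split into Δ, ϑ, α, β and γ bands and integrated over 1 h from the moment of i.v. injection, in saline, dosed as free base. Counts were compared with each animal's own pretreatment control by paired t-test (p≦0.05). Doses were reduced geometrically to a no-effect level.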

For `COC(=O)C(c1ccccc1)C1CCCCN1` (stereo not drawn) [Methylphenidate HCl, methylphenidate], the minimal effective dose ([1]; Felis catus, sc, read-out: the minimum dose required to produce the EEG profile characteristic of that particular drug) was 0.25 mg/kg, the “relative potency by comparing minimal doses required to elicit EEG profiles” value ([1]; cat cortex EEG, s.c.) was “equal potency” and the the no-effect dose ([1]; fronto-occipital cat cortex EEG, dose of free base) was 0.125† mg/kg, s.c. The “group percent change in electrical energy from pre-drug control, Δ band” value (“group percent change … Δ band” for short) ([1]; 0.125 mg/kg free base s.c.) was -22%, the “mean change ± S.E. in electrical energy from pre-drug control, Δ band” value (“mean change ± S.E. in electrical energy … Δ band” for short) ([1]; 0.125 mg/kg free base s.c.) was -44 ± 18 instrument counts and the “group percent change … Δ band” value ([1]; 0.25 mg/kg free base s.c.) was -14%. The “mean change ± S.E. in electrical energy … Δ band” value ([1]; 0.25 mg/kg free base s.c.) was -31 ± 18 instrument counts, the “group percent change … Δ band” value ([1]; 1.0 mg/kg free base s.c.) was -2% and the “mean change ± S.E. in electrical energy … Δ band” value ([1]; 1.0 mg/kg free base s.c.) was -4 ± 30 instrument counts. For the same compound, the “group percent change … Δ band” value ([1]; 4.0 mg/kg free base s.c.) was -8%, the “mean change ± S.E. in electrical energy … Δ band” value ([1]; 4.0 mg/kg free base s.c.) was -16 ± 45 instrument counts and the “group percent change in electrical energy from pre-drug control, α band” value (“group percent change … α band” for short) ([1]; 0.125 mg/kg free base s.c.) was -18%. The “mean change ± S.E. in electrical energy from pre-drug control, α band” value (“mean change ± S.E. in electrical energy … α band” for short) ([1]; 0.125 mg/kg free base s.c.) was -24 ± 10 instrument counts, the “group percent change … α band” value ([1]; 0.25 mg/kg free base s.c.) was -31% and the “mean change ± S.E. in electrical energy … α band” value ([1]; 0.25 mg/kg free base s.c.) was -39 ± 12 instrument counts. The “group percent change … α band” value ([1]; 1.0 mg/kg free base s.c.) was -46%, the “mean change ± S.E. in electrical energy … α band” value ([1]; 1.0 mg/kg free base s.c.) was -52 ± 14 instrument counts and the “group percent change … α band” value ([1]; 4.0 mg/kg free base s.c.) was -51%. The “mean change ± S.E. in electrical energy … α band” value ([1]; 4.0 mg/kg free base s.c.) was -63 ± 11 instrument counts, the “group percent change in electrical energy from pre-drug control, β band” value (“group percent change … β band” for short) ([1]; 0.125 mg/kg free base s.c.) was -2% and the “mean change ± S.E. in electrical energy from pre-drug control, β band” value (“mean change ± S.E. in electrical energy … β band” for short) ([1]; 0.125 mg/kg free base s.c.) was -3 ± 5 instrument counts. For the same compound, the “group percent change … β band” value ([1]; 0.25 mg/kg free base s.c.) was -9%, the “mean change ± S.E. in electrical energy … β band” value ([1]; 0.25 mg/kg free base s.c.) was -11 ± 4 instrument counts and the “group percent change … β band” value ([1]; 1.0 mg/kg free base s.c.) was -19%. For the same compound, the “mean change ± S.E. in electrical energy … β band” value ([1]; 1.0 mg/kg free base s.c.) was -20 ± 5 instrument counts, the “group percent change … β band” value ([1]; 4.0 mg/kg free base s.c.) was -12% and the “mean change ± S.E. in electrical energy … β band” value ([1]; 4.0 mg/kg free base s.c.) was -14 ± 4 instrument counts. For the same compound, the “group percent change in electrical energy from pre-drug control, γ band” value (“group percent change … γ band” for short) ([1]; 0.125 mg/kg free base s.c.) was “+7%”, the “mean change ± S.E. in electrical energy from pre-drug control, γ band” value (“mean change ± S.E. in electrical energy … γ band” for short) ([1]; 0.125 mg/kg free base s.c.) was “+6 ± 2 instrument counts” and the “group percent change … γ band” value ([1]; 0.25 mg/kg free base s.c.) was “+9%”. For the same compound, the “mean change ± S.E. in electrical energy … γ band” value ([1]; 0.25 mg/kg free base s.c.) was “+7 ± 2 instrument counts”, the “group percent change … γ band” value ([1]; 1.0 mg/kg free base s.c.) was “+13%” and the “mean change ± S.E. in electrical energy … γ band” value ([1]; 1.0 mg/kg free base s.c.) was “+10 ± 3 instrument counts”. For the same compound, the “group percent change … γ band” value ([1]; 4.0 mg/kg free base s.c.) was “+35%”, the “mean change ± S.E. in electrical energy … γ band” value ([1]; 4.0 mg/kg free base s.c.) was “+25 ± 5 instrument counts” and the “group percent change in electrical energy from pre-drug control, θ band” value (“group percent change … θ band” for short) ([1]; 0.125 mg/kg free base s.c.) was -20%. The “mean change ± S.E. in electrical energy from pre-drug control, θ band” value (“mean change ± S.E. in electrical energy … θ band” for short) ([1]; 0.125 mg/kg free base s.c.) was -31 ± 11 instrument counts, the “group percent change … θ band” value ([1]; 0.25 mg/kg free base s.c.) was -27% and the “mean change ± S.E. in electrical energy … θ band” value ([1]; 0.25 mg/kg free base s.c.) was -38 ± 16 instrument counts. The “group percent change … θ band” value ([1]; 1.0 mg/kg free base s.c.) was -34%, the “mean change ± S.E. in electrical energy … θ band” value ([1]; 1.0 mg/kg free base s.c.) was -45 ± 17 instrument counts and the “group percent change … θ band” value ([1]; 4.0 mg/kg free base s.c.) was -41%. The “mean change ± S.E. in electrical energy … θ band” value ([1]; 4.0 mg/kg free base s.c.) was -56 ± 14 instrument counts, the minimal effective dose (rabbit cortex; Oryctolagus cuniculus, iv, read-out: the minimum dose required to produce the EEG profile characteristic of that particular drug) was 0.125 mg/kg and the “relative potency by comparing minimal doses required to elicit EEG profiles” value (rabbit cortex; rabbit cortex EEG, i.v.) was “approximately four times more potent than buspirone”. For the same compound, the the no-effect dose (rabbit cortex; rabbit cortex EEG, dose of free base) was 0.0625† mg/kg, i.v, the “group percent change … Δ band” value (rabbit cortex; 0.0625 mg/kg free base i.v.) was “+3%” and the “mean change ± S.E. in electrical energy … Δ band” value (rabbit cortex; 0.0625 mg/kg free base i.v.) was “+7 ± 19 instrument counts”. For the same compound, the “group percent change … Δ band” value (rabbit cortex; 0.125 mg/kg free base i.v.) was -36%, the “mean change ± S.E. in electrical energy … Δ band” value (rabbit cortex; 0.125 mg/kg free base i.v.) was -120 ± 36 instrument counts and the “group percent change … α band” value (rabbit cortex; 0.0625 mg/kg free base i.v.) was “+6%”. The “mean change ± S.E. in electrical energy … α band” value (rabbit cortex; 0.0625 mg/kg free base i.v.) was “+8 ± 10 instrument counts”, the “group percent change … α band” value (rabbit cortex; 0.125 mg/kg free base i.v.) was -23% and the “mean change ± S.E. in electrical energy … α band” value (rabbit cortex; 0.125 mg/kg free base i.v.) was -47 ± 16 instrument counts. For the same compound, the “group percent change … β band” value (rabbit cortex; 0.0625 mg/kg free base i.v.) was “+4%”, the “mean change ± S.E. in electrical energy … β band” value (rabbit cortex; 0.0625 mg/kg free base i.v.) was “+4 ± 6 instrument counts” and the “group percent change … β band” value (rabbit cortex; 0.125 mg/kg free base i.v.) was -22%. For the same compound, the “mean change ± S.E. in electrical energy … β band” value (rabbit cortex; 0.125 mg/kg free base i.v.) was -35 ± 6 instrument counts, the “group percent change … γ band” value (rabbit cortex; 0.0625 mg/kg free base i.v.) was -1% and the “mean change ± S.E. in electrical energy … γ band” value (rabbit cortex; 0.0625 mg/kg free base i.v.) was -1 ± 2 instrument counts. For the same compound, the “group percent change … γ band” value (rabbit cortex; 0.125 mg/kg free base i.v.) was -7%, the “mean change ± S.E. in electrical energy … γ band” value (rabbit cortex; 0.125 mg/kg free base i.v.) was -9 ± 2 instrument counts and the “group percent change … θ band” value (rabbit cortex; 0.0625 mg/kg free base i.v.) was “+6%”. The “mean change ± S.E. in electrical energy … θ band” value (rabbit cortex; 0.0625 mg/kg free base i.v.) was “+3 ± 9 instrument counts”, the “group percent change … θ band” value (rabbit cortex; 0.125 mg/kg free base i.v.) was -24% and the “mean change ± S.E. in electrical energy … θ band” value (rabbit cortex; 0.125 mg/kg free base i.v.) was -60 ± 16 instrument counts.

— patent EP0497314A1, “Use of azapirones in attention deficit hyperactivity disorder” (Bristol-Myers Squibb Company, priority 1991, dated 1992)
